Test results: paper PMC10778704, “Comparative Analysis of Cyclization Techniques in Stapled Peptides: Structural Insights into Protein–Protein Interactions in a SARS-CoV-2 Spike RBD/hACE2 Model System” (International Journal of Molecular Sciences, 2023)
Bridge positions count the residues as written; N and C are the ends. Peptide text beside a SMILES is read from it.

How the values were obtained:
[1] = BeStSel analysis of Far-UV CD spectra (secondary structure content); format: physicochemical; conditions: from Far-UV CD spectra
Excerpt: This finding prompted us to synthesize the lactam stapled peptides 22 and 23. Similar to our observations of compound 10, we also noted a dominant conformation of 22 attributable to a regular helix1 (53.7%) and an antiparallel, right-twisted β-sheet (46.3%). Therefore, the high percentage of calculated helicity in compounds 10 and 22 can be explained on the basis of the contribution of a strong, negative absorbance band within the 217–218 nm spectral range of the Far-UV CD spectra. Such features are typical of a right-twisted β-sheet.
We were also successful at applying several cyclization strategies across the panel of hACE2 (His34-Gln42)-derived peptides. […] The associated root mean square deviation (RMSD) was 0.5. […] The distortion of the helical conformation can be partially explained by the highly polar nature of our peptide sequence (7 out of 9 amino acids) and inherent limitations in terms of the maximum helicity possible for short peptides due to C- and N-terminal distortions. […] That finding highlights the substantial influence of the initial linear sequence on staple-induced helicity.

[2] = 37 °C, comparison in words
in vitro = conditions: rat, plasma
[3] = molecular target: SARS-CoV-2 Spike RBD/hACE2 interactions (Severe acute respiratory syndrome coronavirus 2, UniProt P0DTC2); format: biochemical, SARS-CoV-2 / human
circular dichroism = conditions: 10 mM Na phosphate; pH 7.4; 25 °C; 100 uM
[4] = format: physicochemical; conditions: 100 µM in 50/50 TFE/10 mM sodium phosphate buffer, pH 7.4, 25 °C
[5] = Far-UV circular dichroism, calculated percent helicity in phosphate buffer; format: physicochemical; conditions: 100 µM in 10 mM sodium phosphate buffer (PBS), pH 7.4, 25 °C; calculated at 222 nm
Protocol: Figure 3 Data generated from Far-UV CD spectra for hACE2-derived peptides measured at a concentration of 100 µM in 10 mM sodium phosphate buffer at pH 7.4 and 25 °C. (A) Far-UV CD spectra of hACE2 (Asp30-Asp38)-derived linear and i, i + 4 staple peptides in molar ellipticity per residue. (B) Table listing the derivatives of 1 with a focus on the macrocyclization technique and measure-based calculated helicity (%) via CD. (C) CD spectra of hACE2 (His34-Gln42)-derived linear and i, i + 4 staple peptides in molar ellipticity per residue. (D) Table listing the derivatives of 2 with a focus on the macrocyclization technique and measure-based calculated helicity (%) via CD. HDY 1,5-Hexadiyne; BMB 1,4-Bis(bromomethyl)benzene; HFB hexafluorobenzene. ^a Predicted helicity (%) using AGADIR online software available at http://agadir.crg.es (accessed on 17 April 2023); it is only applicable to peptides consisting of natural amino acids. […]
The raw CD data (mdeg) were converted to mean residue ellipticity ( [θ] , deg·cm^2·dmol^−1·res^−1) by normalizing for peptide concentration, the number of amide bonds and path length, using Equation (2):(2) [θ]=θ/10×C×Np×l where θ is the measured ellipticity (mdeg), C is the peptide molar concentration (M), Np is the number of amino acid residues in the peptide and l is the cell path length (cm).
The maximum mean ellipticity [θ]max was calculated using Equation (3), as reported previously:(3) [θ]max=−44000+250×T×1−k/Np where T is temperature (°C) and k is the number of non-hydrogen-bonded peptide carbonyls. […]

[6] = reference control; cited from earlier work

With `CC(=O)N[C@@H](Cc1c[nH]cn1)C(=O)N[C@@H](CCC(=O)O)C(=O)N[C@H]1CCCCNC(=O)C[C@@H](C(=O)N[C@@H](Cc2ccc(O)cc2)C(=O)N[C@@H](CCC(N)=O)C(N)=O)NC(=O)[C@H](CC(C)C)NC(=O)[C@H](CC(=O)O)NC(=O)[C@H](CCC(=O)O)NC1=O` [peptide 4, Ac-NH-His-Glu-[Lys-Glu-Asp-Leu-Asp]-Tyr-Gln-CO-NH2] (Ac-HEKEDLDYQ-NH2; lactam 3-7) the “Distorted helix2 with BeStSel” value [1] was 18.3%, the “Helical content (α-helical character) with BeStSel” value [1] was 37.0% and the “Regular helix1 with BeStSel” value [1] was 18.7%. For the same molecule, the “Degradation / stability in rat plasma over 24 h” value [2] was “significantly more stable”, the half-life (in vitro) was 5 h and the “Luminescence signal (RLUs), disruption of SmBiT-ACE2 + LgBiT-RBD” value [3] was “reduced the luminescence signal”. For the same molecule, the helicity (circular dichroism) was 55.5% and the “Helicity in 50%TFE (%)” value [4] was 49.4%.
In the case of “Ac-NH-Asp-Lys-[Lys-Asn-His-Glu-Asp]-Glu-Asp-[Lys-Phe-Tyr-Gln-Asp]-CO-NH2 [peptide 24]”, the “Helicity (%) via CD” value [5] is reported as 25.2%.
For “Ac-NH-His-Glu-S5-Glu-Asp-Leu-S5-Tyr-Gln-CO-NH2 [linear 11]”, the “Helicity (%) via CD” value [5] was 11.0%.
With “Ac-NH-His-Glu-[Lys-Glu-Asp-Leu-dPra]-Tyr-Gln-CO-NH2 [compound 13]” the “Helicity (%) via CD” value [5] was 18.1%.
In the case of “Apelin-13 (QRPRLSHKGPMPF; Apelin-13; UniProt Q9ULZ1 65-77, looked up)”, the “In vitro half-life (t1/2), in words” value [6] is given as “short in vitro half-life”.
